This note sets out measurements from patent publication US12030908B2, “Antimicrobial compounds, compositions, and uses thereof” (Lakewood Amedex, Inc., priority 2017, dated 2024).

Series [1] deals with Acinetobacter baumannii (ATCC 19606). In words: Neutropenic lung infection model in mice, lung bacterial burden (Example 25). In kind it is in vivo, BALB/c mice. The following applies: for antibacterial effect on A. baumannii vs day 3 vehicle control: 10% solution aerosol once daily, p<0.05; for Log10 CFU/g lung Mean ± SD / Log10 CFU/g lung: Nu-8 (10%), aerosol, 2 h post end of treatment; for Log10 CFU/g lung Mean ± SD: group mean; for Log10 CFU/g lung: individual animals. The protocol: Neutropenic, BALB/c female mice, all of which were from 6 to 8 weeks of age, were infected intranasally with ˜2×10^7 CFU/lung Acinetobacter baumannii (ATCC 19606). Twenty-four hours after infection; animals were treated by aerosol route with vehicle or Nu-8 (10% solution), once daily for one, three, and five days. Following treatment for 1, 3, and 5 days, animals were terminated, and lung tissues were collected to determine the bacterial load.
The mice were separated into cohorts in accordance with Table 26.
On day −4 (four days before the date of infection), each mouse was dosed with a single intraperitoneal injection of cyclophosphamide equivalent to 150 mg/kg and returned to its cage. On day −1 (one day before infection) each mouse received a dose equivalent to 100 mg/kg of cyclophosphamide.
On day −1, an aliquot from glycerol stocks of Acinetobacter baumannii (ATCC19606) was thawed, inoculated into fresh Casein Soybean Digest Broth (CSDB) and incubated overnight at 37° C.
On the day of infection (Day 0), the overnight culture was checked, centrifuged and the cells were pelleted and resuspended in sterile normal saline to obtain approximately 10^9 CFU/ml Acinetobacter baumannii, which was used for infection. The inoculum was serially diluted ten-fold in sterile CSDB and 0.05 ml of six dilutions was plated onto CSD Agar plates to determine the viable count (CFU/ml) of inoculum.
Animals were divided into different groups as specified in the experimental design (Table 26). Infections were conducted in a biological safety cabinet, with appropriate personnel protection. Mice were placed into an induction chamber and anesthesia was induced by exposing the animals to 3%-5% Isoflurane in an oxygen flow set at approximately 1 liter per minute (LPM). Once the animals were in a sufficiently deep plane of anesthesia, they were removed and infected. Infection was done by instilling 0.02 ml (containing ˜1×10^9 CFU/ml) of the inoculum; 10 μl was instilled into each nostril of the anesthetized animal intra-nasally using a 10 μl pipette (˜2×10^7 CFU/animal). A gentle shaking/mixing of inoculum between two animals was followed for uniform distribution.
The vehicle used for the test compound was saline (0.9% NaCl adjusted to pH 3.5 with citric acid). To make 10% Nu-8 solution, 15 g of compound was weighed and dissolved in 145 ml of 0.9% NaCl; pH of solution was adjusted to 3.5 by adding 2.4 ml of citric acid solution and to this solution, 2.6 ml of 0.9% NaCl solution was added to make up the volume to 150 ml. The same procedure was followed on day 2, 3, 4 and 5.
Treatment was initiated twenty-four hours post infection. Test formulations were administered by aerosol route with nose-only apparatus connected to a nebulizer (Omron Ne-C28 Compressor Nebulizer with a volume capacity of 15 ml, Particle size 3 μm, nebulization rate: 0.5 ml/min, and Aerosol output rate: 0.09 ml/min). The formulation prepared previously was placed into the nebulizer fluid cup; animals were placed in the nose-only apparatus and the entire system was placed inside a Class II Biosafety Cabinet. Animals received nebulization for 20 min, followed by a 30-minute rest and then an additional 20-minute exposure at the same dose concentration (the flow rate and percentage of test material available at the inhalation port was 16% of the initial concentration in the nebulizer if the test compound is in solution).
Groups of animals were euthanized at 2 h post treatment, as specified in the experimental design, by an overdose of CO2 in an appropriate exposure chamber.
The euthanized animals were dipped into 70% ethanol for surface decontamination. Lungs were aseptically excised, weighed, placed in a 2 ml centrifuge tube containing 1 ml of sterile CSDB broth, and homogenized (Omni Tip (220THB handheld)). Serial ten-fold dilutions of the lung homogenates were prepared in sterile CSDB broth and 0.05 ml of four dilutions for each lung was plated onto CSDA agar plates. […]

Series [2] is described as follows: Body weight in the Aspergillus fumigatus lung infection model (Example 24). In kind it is in vivo, BALB/c mice. As to conditions: Part A.

“And” between values parts separate entries of the source, which are not always exact repeats. Identical values can stand only once. “Also recorded” adds a separate entry of the source.

As to `CCCCOP(=O)(O)OC[C@H]1O[C@@H](n2ccc(N)nc2=O)C[C@@H]1OP(=O)(O)OCCCC` [Nu-8, sodium ((2R,3S,5R)-5-(4-amino-2-oxopyrimidin-1(2H)-yl)-3-((butoxyoxidophosphor-yl)oxy)tetrahydrofuran-2-yl)methyl butyl phosphate], the “antibacterial effect on A. baumannii vs day 3 vehicle control” value in series [1] (day 3) and in series [1] (day 5) was “significant antibacterial effect; also recorded: significant antibacterial activity” each time. Moreover, in series [1] (10% solution aerosol, day 1, p>0.05), the “activity vs vehicle control on day 1” value is given as “No significant activity”. Moreover, the “Log10 CFU/g lung Mean ± SD” value in series [1] (3 doses, once daily for 3 days, p < 0.05 vs corresponding vehicle control) was found to be 4.01 ± 0.72 Log10 CFU/g lung; in series [1] (5 doses, once daily for 5 days, p < 0.05 vs day 3 vehicle control), 2.69 ± 0.16 Log10 CFU/g lung; in series [1] (single dose), 5.67 ± 0.47 Log10 CFU/g lung. The “Log10 CFU/g lung” value in series [1] (3 doses, once daily for 3 days) is 4.75 Log10 CFU/g lung and 3.02 Log10 CFU/g lung and 4.34 Log10 CFU/g lung and 3.19 Log10 CFU/g lung and 4.29 Log10 CFU/g lung and 4.46 Log10 CFU/g lung; in series [1] (5 doses, once daily for 5 days) it was 2.76 Log10 CFU/g lung and 2.51 Log10 CFU/g lung and 2.71 Log10 CFU/g lung and 2.62 Log10 CFU/g lung and 2.96 Log10 CFU/g lung and 2.60 Log10 CFU/g lung; in series [1] (single dose), 5.51 Log10 CFU/g lung and 6.03 Log10 CFU/g lung and 5.54 Log10 CFU/g lung and 6.30 Log10 CFU/g lung and 5.72 Log10 CFU/g lung and 4.93 Log10 CFU/g lung. Moreover, the “decrease in lung burden compared to the vehicle on day 1” value in series [1] (following treatment for 5 days) was above 3 Log10) CFU/g lung. The “Body Weight (g) Mean ± SD” value is 25.17 ± 0.75 g in series [2] (3 doses, once daily for 3 days, Day 0); 24.50 ± 0.55 g in series [2] (3 doses, once daily for 3 days, Day 1); 23.17 ± 0.75 g in series [2] (3 doses, once daily for 3 days, Day 2); 22.33 ± 0.58 g in series [2] (3 doses, once daily for 3 days, Day 3 (n = 3)); 25.33 ± 0.82 g in series [2] (5 doses, once daily for 5 days, Day 0); 24.33 ± 0.52 g in series [2] (5 doses, once daily for 5 days, Day 1). Besides, the “Body Weight (g) Mean ± SD” value is given as 23.33 ± 0.52 g in series [2] (5 doses, once daily for 5 days, Day 2); 22.67 ± 0.58 g in series [2] (5 doses, once daily for 5 days, Day 3 (n = 3)); 25.50 ± 0.55 g in series [2] (single dose group, Day 0); 24.17 ± 0.41 g in series [2] (single dose group, Day 1). Besides, the “Body Weight (g) Mean” value in series [2] (5 doses, once daily for 5 days, Day 4 (n = 2)) turned out to be 22.50 g; in series [2] (5 doses, once daily for 5 days, Day 5 (n = 2)) it was 22.00 g. Also, the “change in mean body weights” value in series [2] (vehicle and treatment groups) is “Decreases in mean body weights were observed”.
